Results from patent US7446199B2, “Compositions useful as inhibitors of protein kinases” (Vertex Pharmaceuticals Incorporated, priority 2003, dated 2008).

Biological target: T1, TAK1A-TAB fusion protein (Homo sapiens, UniProt O43318)
T1 construct: using 20 nM TAK1A-TAB fusion protein
T1 sequence (O43318 with tags, fused parts or gaps isoform O43318-2 limits assumed): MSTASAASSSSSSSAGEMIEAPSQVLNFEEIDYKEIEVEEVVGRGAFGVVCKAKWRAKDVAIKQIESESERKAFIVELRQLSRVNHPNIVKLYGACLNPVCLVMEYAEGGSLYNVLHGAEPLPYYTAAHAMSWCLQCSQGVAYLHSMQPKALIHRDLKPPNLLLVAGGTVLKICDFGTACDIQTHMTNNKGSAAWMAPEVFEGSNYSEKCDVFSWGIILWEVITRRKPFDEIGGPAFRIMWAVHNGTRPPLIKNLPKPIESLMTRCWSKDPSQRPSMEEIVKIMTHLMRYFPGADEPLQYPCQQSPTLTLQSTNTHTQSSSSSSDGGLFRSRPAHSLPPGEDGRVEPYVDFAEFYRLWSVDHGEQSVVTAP
Experiment: TAK-1 inhibition assay, radiometric filter binding assay
Type: biochemical
Conditions: 50 μM ATP, 12 μM bovine myelin basic protein, 20 nM TAK1A-TAB fusion protein
Protocol: Compounds were screened for their ability to inhibit TAK1A kinase activity using a radiometric filter binding assay. Reactions were carried out in a solution containing Buffer A (100 mM HEPES (pH 7.5), 10 mM MgCl2), 25 mM NaCl, 2 mM DTT, and 1.5% DMSO. Final substrate concentrations in the assay were 50 μM ATP (a mixture of unlabeled ATP (Sigma Chemicals, St Louis, Mo.) and ^33P-labeled ATP (PerkinElmer Life Sciences, Boston, Mass.) for a final specific activity of 50 Ci/mol), and 12 μM bovine myelin basic protein (MBP, Vertex Pharmaceuticals, Cambridge, Mass.). Reactions were carried out at ambient temperature (˜20° C.) using 20 nM TAK1A-TAB fusion protein. Under these conditions the extent of reaction is linear with time for a period of 2 hours.
A test compound of the present invention (1 μL in DMSO) was combined with ATP and Buffer A in a final volume of 47 μL in a 96 well plate. Typically, a 6 point titration was conducted by preparing serial dilutions (from 10 mM compound stocks) with DMSO of the test compounds of the present invention in daughter plates, for final concentrations spanning 0.046 μM to 3.73 μM. The reaction was initiated by the addition of 20 μl of an enzyme stock solution consisting of TAK1A-TAB fusion (described by Sugita, T. et al. in Biochem. Biophys. Res. Comm. 2002, 297, 1277-1281), MBP, Buffer A, NaCl, and DTT. The reaction was allowed to proceed for two hours at ambient temperature, then quenched with an equal volume of 10 mM unlabeled ATP in 10% trichloroacetic acid. A 110 μL aliquot of the quenched reaction was transferred to a Multiscreen PH filter plate (Millipore, Billerica, Mass.) and allowed to incubate at ambient temperature overnight (typically 16-20 hours). Following incubation the filter plates were washed with 3×150 μL aliquots of 5% trichloroacetic acid using a modified Biotek Elx405 plate washer. A 70 μL aliquot of Microscint 20 scintillation fluid (PerkinElmer) was added to each well, and the plate was then sealed and read on a TopCount NXT microplate scintillation counter (PerkinElmer). The Ki values were determined from the rate data as a function of inhibitor concentration.

`NC1CC=C(c2cnc3[nH]cc(-c4oncc4-c4cccc(F)c4F)c3c2)CC1` (stereo not shown) [Compound 137, 4-{3-[4-(2,3-Difluoro-phenyl)-isoxazol-5-yl]-1H-pyrrolo [2,3-b]pyridin-5-yl}-cyclohex-3-enylamine] and `CN(C)C1CC=C(c2cnc3[nH]cc(-c4oncc4-c4cccc(F)c4F)c3c2)CC1` (stereo not shown) [Compound 138, (4-{3-[4-(2,3-Difluoro-phenyl)-isoxazol-5-yl]-1H-pyrrolo[2,3-b]pyridin-5-yl}-cyclohex-3-enyl)-dimethyl-amine] cannot be ordered by Ki: < 200 nM for the first, < 200 nM for the second.

`CS(=O)(=O)n1ccc2cc(-c3cnc4[nH]cc(-c5oncc5-c5cccc(F)c5F)c4c3)cnc21` [Compound 97, 3′-[4-(2,3-Difluoro-phenyl)-isoxazol-5-yl]-1-methanesulfonyl-1H, 1′H-[5,5′]bi[pyrrolo[2,3-b]pyridinyl]] and `Fc1ccc(-c2cnc3[nH]cc(-c4oncc4-c4cccc(F)c4F)c3c2)cn1` [Compound 69, 3-[4-(2,3-Difluoro-phenyl)-isoxazol-5-yl]-5-(6-fluoro-pyridin-3-yl)-1H-pyrrolo[2,3-b]pyridine] fall in the same range of Ki: 200 to 1000 nM for the first, 200 to 1000 nM for the second.

Compared with `Fc1cccc(-n2cnnc2-c2c[nH]c3ncc(-c4ccc(CN5CCOCC5)cc4)cc23)c1F` [Compound 109, 3-[4-(2,3-Difluoro-phenyl)-4H-[1,2,4]triazol-3-yl]-5-(4-morpholin-4-ylmethyl-phenyl)-1H-pyrrolo[2,3-b]pyridine], `CN1CCN(c2ccc(-c3cnc4[nH]cc(-c5nncn5-c5cccc(F)c5F)c4c3)cc2)CC1` [Compound 110, 3-[4-(2,3-Difluoro-phenyl)-4H-[1,2,4]triazol-3-yl]-5-[4-(4-methyl-piperazin-1-yl)-phenyl]-1H-pyrrolo[2,3-b]pyridine] is lower in Ki: 200 to 1000 nM for the first, < 200 nM for the second.

`COc1ccnc(-c2cnc3[nH]cc(-c4oncc4-c4cccc(F)c4F)c3c2)c1` [Compound 78, 3-[4-(2,3-Difluoro-phenyl)-isoxazol-5-yl]-5-(4-methoxy-pyridin-2-yl)-1H-pyrrolo[2,3-b]pyridine] and `CN(C)C(=O)c1ccc(-c2cnc3[nH]cc(-c4oncc4-c4cccc(F)c4F)c3c2)nc1` [Compound 79, 6-{3-[4-(2,3-Difluoro-phenyl)-isoxazol-5-yl]-1H-pyrrolo [2,3-b]pyridin-5-yl}-N,N-dimethyl-nicotinamide] fall in the same range of Ki: 200 to 1000 nM for the first, 200 to 1000 nM for the second.

`CCN1CCC(c2cnc3[nH]cc(-c4oncc4-c4cccc(F)c4F)c3c2)CC1` [Compound 72, 3-[4-(2,3-Difluoro-phenyl)-isoxazol-5-yl]-5-(1-ethyl-piperidin-4-yl)-1H-pyrrolo[2,3-b]pyridine] and `Fc1cccc(-c2cnoc2-c2c[nH]c3ncc(C4CCNCC4)cc23)c1F` [Compound 62, 3-[4-(2,3-Difluoro-phenyl)-isoxazol-5-yl]-5-piperidin-4-yl-1H-pyrrolo[2,3-b]pyridine] fall in the same range of Ki: 1000 to 12500 nM for the first, 1000 to 12500 nM for the second.

First: CN1CCCN(c2ccc(-c3cnc4[nH]cc(-c5nncn5-c5cccc(F)c5F)c4c3)cn2)CC1 [Compound 117, 3-[4-(2,3-Difluoro-phenyl)-4H-[1,2,4]triazol-3-yl]-5-[6-(4-methyl-[1,4]diazepan-1-yl)-pyridin-3-yl]-1H-pyrrolo [2,3-b]-pyridine]
Second: CN1CCN(c2ccc(-c3cnc4[nH]cc(-c5nncn5-c5cccc(F)c5F)c4c3)cn2)CC1 [Compound 112]
The Ki of the first is lower: 200 to 1000 nM for the first, 1000 to 12500 nM for the second.

`OC1CCN(c2ccc(-c3cnc4[nH]cc(-c5nncn5-c5cccc(F)c5F)c4c3)cn2)CC1` [Compound 116, 5′-{3-[4-(2,3-Difluoro-phenyl)-4H-[1,2,4]triazol-3-yl]-1H-pyrrolo[2,3-b]pyridin-5-yl}-3,4,5,6-tetrahydro-2H-[1,2′]bi-pyridinyl-4-ol] and `Fc1cccc(-n2cnnc2-c2c[nH]c3ncc(-c4ccc(N5CCCC5)nc4)cc23)c1F` [Compound 118, 3-[4-(2,3-Difluoro-phenyl)-4H-[1,2,4]triazol-3-yl]-5-(6-pyrrolidin-1-yl-pyridin-3-yl)-1H-pyrrolo[2,3-b]pyridine] fall in the same range of Ki: 200 to 1000 nM for the first, 200 to 1000 nM for the second.

First: CS(=O)(=O)NC1CC=C(c2cnc3[nH]cc(-c4oncc4-c4cccc(F)c4F)c3c2)CC1 (stereo not shown) [Compound 140, N-(4-{3-[4-(2,3-Difluoro-phenyl)-isoxazol-5-yl]-1H-pyrrolo[2,3-b]pyridin-5-yl}-cyclohex-3-enyl)-methanesulfonamide]
Second: Fc1cccc(-c2cnoc2-c2c[nH]c3ncc(C4=CCC(N5CCOCC5)CC4)cc23)c1F (stereo not shown) [Compound 139, 3-[4-(2,3-Difluoro-phenyl)-isoxazol-5-yl]-5-(4-morpholin-4-yl-cyclohex-1-enyl)-1H-pyrrolo[2,3-b]pyridine]
The Ki of the first is lower: < 200 nM for the first, 200 to 1000 nM for the second. The first binds more tightly here.

First: CN(C)CC#Cc1cnc2[nH]cc(-c3oncc3-c3cccc(F)c3F)c2c1 [Compound 53, (3-{3-[4-(2,3-Difluoro-phenyl)-isoxazol-5-yl]-1H-pyrrolo[2,3-b]pyridin-5-yl}-prop-2-ynyl)-dimethyl-amine]
Second: Fc1cccc(-c2cnoc2-c2c[nH]c3ncc(C4=CCC(NCc5ccccc5)CC4)cc23)c1F (stereo not shown) [Compound 136, Benzyl-(4-{3-[4-(2,3-difluoro-phenyl)-isoxazol-5-yl]-1H-pyrrolo[2,3-b]pyridin-5-yl}-cyclohex-3-enyl)-amine]
The Ki of the first is higher: 200 to 1000 nM for the first, < 200 nM for the second.

`Fc1cccc(-n2cnnc2-c2c[nH]c3ncc(-c4cccnc4)cc23)c1F` [Compound 113, 3-[4-(2,3-Difluoro-phenyl)-4H-[1,2,4]triazol-3-yl]-5-pyridin-3-yl-1H-pyrrolo[2,3-b]pyridine] and `Fc1cccc(-n2cnnc2-c2c[nH]c3ncc(-c4ccncc4)cc23)c1F` [Compound 114, 3-[4-(2,3-Difluoro-phenyl)-4H-[1,2,4]triazol-3-yl]-5-pyridin-4-yl-1H-pyrrolo[2,3-b]pyridine] fall in the same range of Ki: 1000 to 12500 nM for the first, 1000 to 12500 nM for the second.

Compared with `Fc1cccc(-n2cnnc2-c2c[nH]c3ncc(-c4ccc(N5CCC[C@H]5CN5CCCC5)nc4)cc23)c1F` [Compound 115, 3-[4-(2,3-Difluoro-phenyl)-4H-[1,2,4]triazol-3-yl]-5-[6-(2-pyrrolidin-1-ylmethyl-pyrrolidin-1-yl)-pyridin-3-yl]-1H-pyrrolo[2,3-b]pyridine], `CN(C)CCNc1ccc(-c2cnc3[nH]cc(-c4nncn4-c4cccc(F)c4F)c3c2)cn1` [Compound 119, N′-(5-{3-[4-(2,3-Difluoro-phenyl)-4H-[1,2,4]triazol-3-yl]-1H-pyrrolo[2,3-b]pyridin-5-yl}-pyridin-2-yl)-N,N-dimethyl-ethane-1,2-diamine] is higher in Ki: 200 to 1000 nM for the first, 1000 to 12500 nM for the second. The first binds more tightly here.
